Reference: patent US20260158140A1, “METHODS AND MATERIALS FOR IMPROVING T CELL THERAPIES” (Mayo Foundation for Medical Education and Research, priority 2021, published 2026)
Entries after “also recorded” stand apart in the source; their conditions may differ.

Columns and labels:
[1] = system: CD19+ Mantle cell lymphoma cell line, Jeko-1; assay: CART19 cytotoxicity: co-culture of CART19 or UTD T cells with JeKo-1, percent killing; assay type: cell-based, human
Description: FIGS. 1A-1C. […] CART19 and live JeKo-1 were co-cultured at 1:1 ratio for 24 hours in the presence of DMSO or vecabrutinib (1 μM or 10 μM). The percentage of killing were assessed relative to control (****p<0.0001, two-way ANOVA). […] CART19 and irradiated JeKo-1 were co-cultured at 1:1 ratio for 24 hours in the presence of DMSO or vecabrutinib (1 μM or 10 μM). Absolute CD3^+ T cell counts were assessed by flow cytometry (**p<0.01, two-way ANOVA) . […] JeKo-1 target cells were incubated with CART19 at a 5:1 ratio with monensin, hCD49d, and hCD28 in the presence of vecabrutinib at the indicated concentrations for 4 hours. Cells were then analyzed using intracellular flow cytometric assessment of CD107a as a marker for degranulation.
FIG. 10. CART19 cytotoxicity in the presence of Vecabrutinib versus the irreversible BTK inhibitor, Ibrutinib. CART19 or control cells (UTD) were cocultured at different effector-to-target ratio (E:T) with Jeko-1 cell line with vecabrutinib at 1 μM or 10 μM, or ibrutinib at 1 μM. At 24 hours, live Jeko cells numbers was measured by flow cytometry and percent killing was calculated relative to control (*p<0.05, **p<0.01, two-way ANOVA).
To investigate CAR T-specific cytotoxicity, CART19 cells or control UTD T cells were co-cultured with the CD19^+ Mantle cell lymphoma cell line, Jeko-1, at 1:1 ratio and treated with vehicle (DMSO) or vecabrutinib at 1 μM or 10 μM for 24 hours (FIG. 1A).
Measurement of CART19 killing of JeKo-1 cells at different effector to target ratios. […] Results were normalized to target cells incubated with the respective concentration of the BTK inhibitor alone (with no CART19) to eliminate the direct cytotoxic effect of the inhibitor on lymphoma cells without CART19. 10 μM of ibrutinib was not included as it caused 100% killing of CART19 cells and Jeko-1 cells (FIGS. 11A and 11B).

[2] = system: CART19 cells; assay: CART19 proliferation: co-culture with irradiated JeKo-1, absolute CD3+ T cell counts by flow cytometry; assay type: cell-based, human; conditions: 1 μM
Description: FIGS. 11A-11B. Proliferation. […] CART19 and irradiated JeKo-1 were co-cultured at 1:1 ratio for 24 hours in the presence of DMSO or vecabrutinib (1 μM or 10 μM) or ibrutinib (1 μM or 10 μM). Absolute CD3^+T cell counts were assessed by flow cytometry (*p<0.05, ****p<0.0001, two-way ANOVA). FIG. 11B) To further verify effect of BTK inhibition on CART19 proliferation, using different set of donors for CAR T cell production, CART19 and irradiated JeKo-1 were co-cultured at 1:1 ratio for 24 hours in the presence of DMSO or vecabrutinib (10 μM) or ibrutinib (10 μM).
For proliferation assays, CART19 cells were cultured with irradiated CD19^+ cell line Jeko-1 at a 1:1 ratio for 24 hours. Then, the cells were harvested and washed with flow buffer, following by surface staining with anti-hCD3 (eBioscience, San Diego, CA, USA) and LIVE/DEAD™ Fixable Aqua Dead Cell Stain Kit (Invitrogen, Carlsbad, CA, USA). […] Absolute quantification was obtained using volumetric measurement or CountBright absolute counting beads (Invitrogen, Carlsbad, CA, USA). […]
Next, the effect of vecabrutinib on CART19 proliferation was assessed. CART19 cells were cocultured with irradiated JeKo-1 cells for 24 hours in the presence of vecabrutinib (1 μM or 10 μM), and the absolute count of CART19 was measured by flow cytometry and used as a surrogate for proliferation. […]

[3] = system: CART19 cells; assay: RNA-Seq of CART19 cells stimulated with irradiated JeKo-1 (differential expression, Ingenuity Pathway Analysis); assay type: cell-based, human; conditions: 10 μM vs vehicle
Description: CART19 and irradiated Jeko-1 cells were co-cultured at a 1:1 ration for 72 hours with DMSO or 10 μM Vecabrutinib. Three biological replicates of stimulated and unstimulated CART19 cells were included.
RNA was isolated using miRNeasy Micro kit (Qiagen, Gaithersburg, MD, USA) and treated with RNase-Free DNase Set (Qiagen, Gaithersburg, MD, USA). Total RNA was prepped with a SMARTer stranded total RNA-seq kit v2, Pico input mammalian (Takara, Mountain View, CA, USA). Total RNA (three samples per lane) was sequenced on an Illumina HiSeq 4000 (Illumina, San Diego, CA, USA). Library preparation and sequencing were performed by the Medical Genome Facility Genome, Analysis Core (Mayo Clinic, Rochester, MN, USA). Fastq files were viewed in FastQC v0.11.8 to check for quality. Adaptor sequences were removed using Cutadapt v1.18.46. Output files were re-checked for quality and adaptor removal using FastQC v0.11.8. The latest human (GRCh38) reference genomes were downloaded from NCBI. Genome index files were generated using STAR, and the paired end reads were mapped to the genome for each condition. HTSeq was used to generate expression counts for each gene, and DeSeq2 was used to calculate differential expression using adjusted p values <0.05. Heatmap was created using pheatmap (cran.r-project.org/web/packages/pheatmap/index.html). Networks were generated using Ingenuity Pathway Analysis v49932394 (QIAGEN, qiagenbioinformatics.com/products/ingenuity-pathway-analysis). Gene set enrichment analyses were performed using Enrichr (maayanlab.cloud/Enrichr/).
• Biological Replicates: C267, C278, C296 where CART19 cells were generated • Conditions: • Vehicle • 1 μM vecabrutinib • 10 μM vecabrutinib • Activated for 72 hours with Irradiated JeKo-1 (1:1 E:T Ratio) • mRNA was extracted from CART19 cells • RNA sequencing was performed
• FastQC (initial quality check) • Trimmomatic (trim adapters and overrepresented sequences) • FastQC (to confirm removal of the above) • STAR (align to the latest human genome annotation, GRCh38.p13) • HTSeq (obtain counts for each gene) • DESeq2 • Normalized counts across samples • Calculated differential expression between groups • Multiple hypothesis correction (Benjamini-Hochberg procedure)

[4] = system: luciferase+JeKo-1 cells; assay: JeKo-1 xenograft model with CART19 plus oral vecabrutinib; assay type: in vivo; conditions: CART19 + vecabrutinib 50 mg/kg BID vs CART19 + vehicle, weekly weighing (FIG. 4C)
Description: FIGS. 4A-4C. Reversible BTK inhibition in vivo enhances CAR T cell antitumor activity in xenograft models. […] On day-14, NSG mice were injected with 1×10^6 luciferase+JeKo-1 cells intravenously. Gavage began on day −1 with vecabrutinib 50 mg/kg BID or vehicle. Untransduced T cells (UTD) or CART19 were infused on day 0. Mice were imaged weekly to assess the tumor burden. p/s=photons/seconds. […] Mice were bled weekly to measure CART19 by flow cytometry (*p<0.05, one-way ANOVA). FIG. 4C) Vecabrutinib decreases CRS. Mouse weight and wellbeing along with elevation of human cytokines represent a surrogate for the development of CRS intensity in mice receiving CART19. […]
6-8 week old, non-obese diabetic/severe combined immunodeficient female mice bearing a targeted mutation in the interleukin (IL)-2 receptor gamma chain gene (NSG) were obtained from Jackson Laboratories (Jackson Laboratories, Bar Harbor, ME, USA). […] Mice were weighed weekly, and measurements were recorded in grams. Tumor burden was measured weakly by imaging mice with a bioluminescent imager using an IVIS® Lumina S5 Imaging System (PerkinElmer, Hopkinton, MA, USA), and measurements were recorded in total flux (p/s). […] Absolute quantification was obtained using volumetric measurement or CountBright absolute counting beads (Invitrogen, Carlsbad, CA, USA). […]

Compound: C=CC(=O)N1CCC[C@@H](n2nc(-c3ccc(Oc4ccccc4)cc3)c3c(N)ncnc32)C1 [ibrutinib]
- killing of CART19 cells and Jeko-1 cells ([1]; 10 μM): 100%
- CART19-mediated killing of Jeko-1 lymphoma cells ([1]; different E:T ratios, 24 hours, vecabrutinib 1 μM or 10 μM, ibrutinib 1 μM, normalized to target cells with inhibitor alone (FIG. 10)): no effect
- CART19 proliferation (absolute CD3+ T cell count) ([2]; irradiated JeKo-1 1:1, 24 hours (FIG. 11A)): no effect

Compound: NC(=O)[C@H]1CCN(c2ncnc(N)c2F)C[C@@H]1N1CCC[C@@H](Nc2cc(Cl)cc(C(F)(F)F)c2)C1=O [vecabrutinib]
- PI3K/AKT signaling z-score (Ingenuity Pathway Analysis) ([3]; 72 hours (FIG. 5F, FIG. 9)): 0.707
- IL-8 signaling pathway z-score (Ingenuity Pathway Analysis) ([3]; 72 hours (FIG. 9)): −1.941
- PDGF signaling z-score (Ingenuity Pathway Analysis) ([3]; 72 hours (FIG. 9)): −1.667
- PTEN signaling pathway Z-score (Ingenuity Pathway Analysis) ([3]; 72 hours (FIG. 9)): 0.333
- STAT 3 pathway z-score (Ingenuity Pathway Analysis) ([3]; 72 hours (FIG. 9)): −3.051
- TH1 pathway Z-score (Ingenuity Pathway Analysis) ([3]; 72 hours (FIG. 9)): 0.816
- CART19-mediated killing of tumor cells (tumor specific cytotoxicity), percentage of killing relative to control ([1]; CART19:JeKo-1 1:1, 24 hours, 1 μM or 10 μM vs DMSO (FIG. 1A)): increases CART19-mediated killing of tumor cells; also recorded: dose-dependent increase
- CART19 antigen specific proliferation (absolute CD3+ T cell count) ([2]; irradiated JeKo-1 1:1, 24 hours (FIG. 1B)): no significant effect
- body weight change from day 0 (surrogate for CRS) [4]: decreases CRS; also recorded: better maintained their body weight
